From patent US20200361871A1 (Enterprise Therapeutics Ltd., priority 2018, published 2020)

Target: human TMEM16A (TMEM16Aabc variant) (Homo sapiens, UniProt Q5XXA6, DEL476-501, form not given)
Experiment: Automated whole-cell patch clamp (Qpatch) TMEM16A potentiator assay in FRT cells stably expressing human TMEM16A
Type: cell-based
Conditions: for % Potentiation @ 3.33 μM Avg: 3.33 μM solution of test compound, percentage increase of baseline TMEM16A current; for EC50: calculated EC50, Qpatch TMEM16A current at +70 mV
From the text: FIG. 1 is an example trace from a whole-cell patch clamp (Qpatch) TMEM16A potentiator assay as used in Biological Example 95 and illustrates the methodology used in the assay. In FIG. 1: S is Saline; V is Vehicle; #1 is Test Compound concentration #1; #2 is Test Compound concentration 2; #3 is Test Compound concentration 3; #4 is Test Compound concentration 4; #5 is Test Compound concentration #5; and R is Reference. The arrow in column V represents the baseline current, IBL. The arrows in each of the columns #1, #2, #3, #4, #5 and R represent I#[1], I#[2], I#[3], I#[4], I#[5] and I[Ref], which are the peak currents during the incubation periods for test compounds concentrations #1 to #5 and the Reference.
Fisher rat thyroid (FRT) cells stably expressing human TMEM16A (TMEM16Aabc variant; Dr Luis Galietta, Insituto Giannina, Italy) were cultured in T-75 flasks in Hams F-12 media with Coon's modification (Sigma) supplemented with 10% (v/v) foetal bovine serum, penicillin-streptomycin (10,000 U/mL/10000 μg/mL), G-418 (750 μg/mL), L-glutamine (2 mM) and sodium bicarbonate solution (7.5% v/v). At ˜90% confluence cells were harvested for experiments by detachment with a 2:1 (v/v) mixture of Detachin (BMS Biotechnology) and 0.25% (w/v) trypsin-EDTA. Cells were diluted to a density of 3.5-4.5×10^6 cells/mL with media consisting of CHO-S-SFM II (Sigma), 25 mM HEPES (Sigma) and Soy bean trypsin inhibitor (Sigma).
FRT-TMEM16A cells were whole-cell patch clamped using an automated planar patch clamp system (Qpatch, Sophion). Briefly, once high resistance (GOhm) seals were established between the cells and the planar recording array the patch was ruptured using suction pulses to establish the whole-cell recording configuration of the patch clamp technique. The assay employed the following solutions (all reagents Sigma): Intracellular solution (mM): N-methyl-D-glucamine 130, CaCl2 18.2, MgCl2 1, HEPES 10, EGTA 10, BAPTA 20, Mg-ATP 2, pH 7.25, 325 mOsm with sucrose.
Extracellular solution (mM): N-methyl-D-glucamine 130, CaCl2 2, MgCl2 1, HEPES 10, pH 7.3, 320 mOsm with sucrose.
The intracellular solution buffers intracellular calcium at levels required to give ˜20% activation of the maximal TMEM16A mediated current (EC20 for calcium ions). Cells were voltage clamped at a holding potential of −70 mV and a combined voltage step (to +70 mV)/ramp (−90 my to +90 mV) was applied at 0.05 Hz. After a period of current stabilisation test compounds, solubilised in 100% (v/v) DMSO and subsequently diluted into extracellular solution, were applied to generate a cumulative concentration response curve. Each concentration of test compound was incubated for 5 minutes before addition of the next concentration. After the final concentration was tested a supramaximal concentration of either a known active positive modulator or the TMEM16A inhibitor, CaCCinhA01 (Del La Fuente et al, 2008) was added to define the upper and lower limits of the assay.
Compound activity was quantified by measuring the increase in current upon compound addition and expressing this as a percentage increase of baseline TMEM16A current level. Percentage increases in current were determined for each concentration and the data plotted as a function of concentration using either the Qpatch software or Graphpad Prism v6.05 providing the concentration which gave 50% of its maximal effect (EC50) and maximum efficacy (percentage of baseline increase).
In FIG. 1, IBL equals baseline current, I[#1] equals the peak current during test compound concentration 1 incubation period and so on.
Peak TMEM16A current at +70 mV was plotted as a function of time over the assay period. Baseline current (IBL) was measured after a period of stabilisation. The increase in current for each compound addition was determined by taking the peak current during the incubation period and subtracting the current from the previous recording period and then expressing this as a percentage of the baseline current. […]

Chain of human TMEM16A (TMEM16Aabc variant) (Q5XXA6 with tags, fused parts or gaps DEL476-501): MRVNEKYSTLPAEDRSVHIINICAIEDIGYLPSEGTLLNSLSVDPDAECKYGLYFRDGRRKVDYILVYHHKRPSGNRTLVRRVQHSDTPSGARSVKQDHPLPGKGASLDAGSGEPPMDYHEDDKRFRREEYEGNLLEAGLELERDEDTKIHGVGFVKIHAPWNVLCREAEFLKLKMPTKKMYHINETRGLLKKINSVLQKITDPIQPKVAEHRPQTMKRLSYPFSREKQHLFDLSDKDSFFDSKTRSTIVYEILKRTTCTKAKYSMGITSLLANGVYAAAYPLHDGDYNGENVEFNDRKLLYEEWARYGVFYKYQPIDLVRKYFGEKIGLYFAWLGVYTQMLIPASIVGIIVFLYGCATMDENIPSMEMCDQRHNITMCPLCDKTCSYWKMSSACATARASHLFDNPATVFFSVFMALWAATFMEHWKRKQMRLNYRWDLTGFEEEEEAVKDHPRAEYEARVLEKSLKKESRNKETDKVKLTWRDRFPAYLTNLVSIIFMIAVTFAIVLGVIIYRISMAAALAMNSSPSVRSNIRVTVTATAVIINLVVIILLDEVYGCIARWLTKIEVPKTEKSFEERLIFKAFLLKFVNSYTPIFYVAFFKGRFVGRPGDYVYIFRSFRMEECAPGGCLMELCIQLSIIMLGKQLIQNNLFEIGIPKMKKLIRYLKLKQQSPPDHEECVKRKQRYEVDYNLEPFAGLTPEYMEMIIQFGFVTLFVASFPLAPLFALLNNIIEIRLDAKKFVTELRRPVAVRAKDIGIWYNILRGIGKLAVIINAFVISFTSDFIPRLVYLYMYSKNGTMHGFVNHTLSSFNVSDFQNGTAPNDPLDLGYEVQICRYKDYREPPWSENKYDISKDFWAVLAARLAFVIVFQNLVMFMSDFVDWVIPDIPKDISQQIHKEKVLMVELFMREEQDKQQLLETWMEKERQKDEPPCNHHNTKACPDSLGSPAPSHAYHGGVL

SMILES | % Potentiation @ 3.33 μM Avg [%] | EC50 [nM]
COc1ccccc1CNC(=O)Nc1ccnc(C(=O)NC(C)(C)C)c1 [Example 65.1, N-tert-Butyl-4-[(2-methoxyphenyl)methylcarbamoylamino]pyridine-2-carboxamide] | 75 | 470
CC(C)(C)NC(=O)c1cc(NC(=O)C2CCc3cccc(O)c32)ccn1 (centres unmarked) [Example 3.10b, N-tert-Butyl-4-[(7-hydroxyindane-1-carbonyl)amino]pyridine-2-carboxamide] | 159 | 460
CC(C)(C)OC(=O)N1C[C@@H]2[C@H](C1)[C@H]2NC(=O)c1cc(NC(=O)Cc2cc(Cl)ccc2O)ccn1 [Example 8.3, tert-Butyl (1r,5s,6s)-6-{4-[2-(5-chloro-2-hydroxyphenyl)acetamido]pyridine-2-amido}-3-azabicyclo[3.1.0]hexane-3-carboxylate] | 238 | 230
CC(C)(C)NC(=O)c1cc(NC(=O)Cc2cc(Cl)c(Br)cc2O)ccn1 [Example 3.4a, 4-[[2-(4-Bromo-5-chloro-2-hydroxy-phenyl)acetyl]amino]-N-tert-butyl-pyridine-2-carboxamide] | 206 | 140
CC(C)(C)NC(=O)c1cc(NC(=O)Cc2ccc(C(C)(C)C)cc2N)ccn1 [Example 88, 4-[[2-(2-Amino-4-tert-butyl-phenyl)acetyl]amino]-N-tert-butyl-pyridine-2-carboxamide] | 270 | 240
CCn1c(C(=O)Nc2ccnc(C(=O)NC(C)(C)C#N)c2)cc2ccccc21 [Example 83.18, N-[2-[(1-Cyano-1-methyl-ethyl)carbamoyl]-4-pyridyl]-1-ethyl-indole-2-carboxamide] | 16 | 
C#CC1(NC(=O)c2cc(NC(=O)Cc3ccccc3Cl)ccn2)CCOCC1 [Example 30.11, 4-[[2-(2-Chlorophenyl)acetyl]amino]-N-(4-ethynyltetrahydropyran-4-yl)pyridine-2-carboxamide] | 125 | 220
CC(C)C(C)(C)NC(=O)c1cc(NC(=O)Cc2cc(Cl)ccc2O)ccn1 [Example 7.6, 4-[[2-(5-Chloro-2-hydroxy-phenyl)acetyl]amino]-N-(1,1,2-trimethylpropyl)pyridine-2-carboxamide] | 285 | 100
CC(C)(C#N)NC(=O)c1cc(NC(=O)c2ccsc2)ccn1 [Example 83, N-(1-Cyano-1-methyl-ethyl)-4-(thiophene-3-carbonylamino)pyridine-2-carboxamide] | 6 | 
CC(C)C(C)(C#N)NC(=O)c1cc(NC(=O)Cc2cc(Cl)ccc2O)ccn1 (centres unmarked) [Example 37, 4-[[2-(5-Chloro-2-hydroxy-phenyl)acetyl]amino]-N-(1-cyano-1,2-dimethyl-propyl)pyridine-2-carboxamide] | 352 | 120
COC(=O)c1ccc(O)c(CC(=O)Nc2ccnc(C(=O)NC(C)(C)C)c2)c1 [Example 13, Methyl 3-[2-[[2-(tert-butylcarbamoyl)-4-pyridyl]amino]-2-oxo-ethyl]-4-hydroxy-benzoate] | 245 | 1000
C#CC(C)(C)NC(=O)c1cc(NC(=O)Cc2ccc(C(C)(C)C)c(O)c2)ccn1 [Example 93.5, 4-[[2-(4-tert-Butyl-3-hydroxy-phenyl)acetyl]amino]-N-(1,1-dimethylprop-2-ynyl)pyridine-2-carboxamide] | 136 | 20
Cc1cccc(CC(=O)Nc2ccnc(C(=O)NC(C)(C)C)c2)c1 [Example 5.14, N-tert-Butyl-4-[[2-(m-tolyl)acetyl]amino]pyridine-2-carboxamide] | 128 | 760
C#CC(C)(C)NC(=O)c1cc(NC(=O)Cc2ccncc2Cl)ccn1 [Example 22.3, 4-[[2-(3-Chloro-4-pyridyl)acetyl]amino]-N-(1,1-dimethylprop-2-ynyl)pyridine-2-carboxamide] | 132 | 
Cc1nc(-c2ccccc2)sc1C(=O)Nc1ccnc(C(=O)NC(C)(C)C#N)c1 [Example 83.28, N-[2-[(1-Cyano-1-methyl-ethyl)carbamoyl]-4-pyridyl]-4-methyl-2-phenyl-thiazole-5-carboxamide] | 20 | 
CC(C)(C)NC(=O)c1cc(NC(=O)Cc2ccc3c(c2)OCCO3)ccn1 [Compound 5.32] | 285 | 
CC(C)(C)NC(=O)c1cc(NC(=O)Cc2cccc(F)c2Cl)ccn1 [Example 40, N-tert-Butyl-4-[[2-(2-chloro-3-fluoro-phenyl)acetyl]amino] pyridine-2-carboxamide] | 153 | 700
CC(C)(C)NC(=O)c1cc(NC(=O)Cc2cccc(Cl)c2)ccn1 [Example 5.5, N-tert-Butyl-4-[[2-(3-chlorophenyl)acetyl]amino]pyridine-2-carboxamide] | 132 | 720
CC(C)c1cc(Cl)cc(CC(=O)Nc2ccnc(C(=O)NC(C)(C)C)c2)c1O [Example 61, N-tert-Butyl-4-[[2-(5-chloro-2-hydroxy-3-isopropyl-phenyl)acetyl]amino]pyridine-2-carboxamide] | 85 | 
CC(C)(C#N)NC(=O)c1cc(NC(=O)c2cnc(C3CC3)nc2)ccn1 [Example 83.8, N-[2-[(1-Cyano-1-methyl-ethyl)carbamoyl]-4-pyridyl]-2-cyclopropyl-pyrimidine-5-carboxamide] | 35 | 
CC1(NC(=O)c2cc(NC(=O)Cc3cc(C(C)(C)C)ccc3O)ccn2)CCC1 [Example 3.6a, 4-[[2-(5-tert-Butyl-2-hydroxy-phenyl)acetyl]amino]-N-(1-methylcyclobutyl)pyridine-2-carboxamide] | 546 | 370
CC(C)(NC(=O)c1cc(NC(=O)Cc2cc(Cl)ccc2O)ccn1)c1ccccn1 [Example 35.9, 4-[[2-(5-Chloro-2-hydroxy-phenyl)acetyl]amino]-N-[1-methyl-1-(2-pyridyl)ethyl]pyridine-2-carboxamide] | 455 | 540
CCOC(=O)CC(C)(C)NC(=O)c1cc(NC(=O)Cc2cc(Cl)ccc2O)ccn1 [Example 35.13, ethyl 3-[[4-[[2-(5-chloro-2-hydroxy-phenyl)acetyl]amino]pyridine-2-carbonyl]amino]-3-methyl-butanoate] | 191 | 350
CC(C)(C)NC(=O)c1cc(NC(=O)Cc2ccc(F)cc2O)ccn1 [Example 3.2a, N-tert-Butyl-4-[[2-(4-fluoro-2-hydroxy-phenyl)acetyl]amino]pyridine-2-carboxamide] | 116 | 160
O=C(Cc1ccccc1Cl)Nc1ccnc(C(=O)NC2CCOCC2)c1 [Example 23.9, 4-[[2-(2-Chlorophenyl)acetyl]amino]-N-tetrahydropyran-4-yl-pyridine-2-carboxamide] | 47 | 
O=C(Cc1cc(Cl)ccc1O)Nc1ccnc(C(=O)NC2CCOCC2)c1 [Example 7.11, 4-[[2-(5-Chloro-2-hydroxy-phenyl)acetyl]amino]-N-tetrahydropyran-4-yl-pyridine-2-carboxamide] | 167 | 320
